Measurements published in PubChem BioAssay AID1845216 (Molecular Pharmacology Branch, DTP, NCI, 2023).
pIC50: −log10 of the molar value.

Tested on: SW 982 tumor spheroid viability
Assay: Anticancer human tumor SW 982 cell line growth inhibition;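 also: spheroids exposed to compound for 7 days before readout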
Settings: spheroids with HUVEC and MSC; for pIC50: curve of first compound; for viability, T/C: stronger effect = lower value
Procedure, shortened: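 Single agents and combinations were tested on spheroids built from tumor cells plus HUVEC and hMSC, at half-log dilutions starting at or near clinical Cmax, else 10 microM; final DMSO 0.25% (v/v).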

COc1ccc([C@@H](O)c2cc(-c3ncnc4cc(N5CCOCC5)ccc34)c(F)cc2Cl)nn1 + CC[C@@]1(O)C(=O)OCc2c1cc1n(c2=O)Cc2cc3c(CN(C)C)c(O)ccc3nc2-1
pIC50 (second compound 0.003 µM): 5.35 | pIC50 (second compound 0.00949 µM): 5.67 | pIC50 (second compound 0.03 µM): 5.92 | pIC50 (second compound 0.0949 µM): 6.28 | pIC50 (second compound 0.3 µM): 6.89 | viability, T/C (second compound 0.003 µM, first compound 0.0316 µM): 96.9% | viability, T/C (second compound 0.003 µM, first compound 0.1 µM): 95.5% | viability, T/C (second compound 0.003 µM, first compound 0.316 µM): 92.1% | viability, T/C (second compound 0.003 µM, first compound 1 µM): 90.9% | viability, T/C (second compound 0.003 µM, first compound 3.16 µM): 59.8% | viability, T/C (second compound 0.003 µM, first compound 10 µM): 27.1% | viability, T/C (second compound 0.00949 µM, first compound 0.0316 µM): 86.4% | viability, T/C (second compound 0.00949 µM, first compound 0.1 µM): 78.5% | viability, T/C (second compound 0.00949 µM, first compound 0.316 µM): 80.7% | viability, T/C (second compound 0.00949 µM, first compound 1 µM): 72.2% | viability, T/C (second compound 0.00949 µM, first compound 3.16 µM): 38.9% | viability, T/C (second compound 0.00949 µM, first compound 10 µM): 15% | viability, T/C (second compound 0.03 µM, first compound 0.0316 µM): 73.8% | viability, T/C (second compound 0.03 µM, first compound 0.1 µM): 76.2% | viability, T/C (second compound 0.03 µM, first compound 0.316 µM): 70.3% | viability, T/C (second compound 0.03 µM, first compound 1 µM): 53.9% | viability, T/C (second compound 0.03 µM, first compound 3.16 µM): 26.8% | viability, T/C (second compound 0.03 µM, first compound 10 µM): 12.8% | viability, T/C (second compound 0.0949 µM, first compound 0.0316 µM): 70.6% | viability, T/C (second compound 0.0949 µM, first compound 0.1 µM): 68.8% | viability, T/C (second compound 0.0949 µM, first compound 0.316 µM): 60.5% | viability, T/C (second compound 0.0949 µM, first compound 1 µM): 36.6% | viability, T/C (second compound 0.0949 µM, first compound 3.16 µM): 18.5% | viability, T/C (second compound 0.0949 µM, first compound 10 µM): 12.8% | viability, T/C (second compound 0.3 µM, first compound 0.0316 µM): 52.2% | viability, T/C (second compound 0.3 µM, first compound 0.1 µM): 55.7% | viability, T/C (second compound 0.3 µM, first compound 0.316 µM): 40.6% | viability, T/C (second compound 0.3 µM, first compound 1 µM): 23.2% | viability, T/C (second compound 0.3 µM, first compound 3.16 µM): 13.1% | viability, T/C (second compound 0.3 µM, first compound 10 µM): 10.2%

Cn1ncnc1[C@H]1c2n[nH]c(=O)c3cc(F)cc(c23)N[C@@H]1c1ccc(F)cc1 + Cn1nnc2c(C(N)=O)ncn2c1=O
pIC50 (second compound 1 µM): < 5.52 | pIC50 (second compound 3.16 µM): < 5.52 | pIC50 (second compound 10 µM): < 5.52 | pIC50 (second compound 31.6 µM): 5.97 | pIC50 (second compound 100 µM): > 8.02 | viability, T/C (second compound 1 µM, first compound 0.00949 µM): 90.9% | viability, T/C (second compound 1 µM, first compound 0.03 µM): 88.5% | viability, T/C (second compound 1 µM, first compound 0.0949 µM): 86.6% | viability, T/C (second compound 1 µM, first compound 0.3 µM): 89.2% | viability, T/C (second compound 1 µM, first compound 0.949 µM): 79% | viability, T/C (second compound 1 µM, first compound 3 µM): 69.9% | viability, T/C (second compound 3.16 µM, first compound 0.00949 µM): 89.8% | viability, T/C (second compound 3.16 µM, first compound 0.03 µM): 62.1% | viability, T/C (second compound 3.16 µM, first compound 0.0949 µM): 79.3% | viability, T/C (second compound 3.16 µM, first compound 0.3 µM): 73% | viability, T/C (second compound 3.16 µM, first compound 0.949 µM): 77.3% | viability, T/C (second compound 3.16 µM, first compound 3 µM): 59.9% | viability, T/C (second compound 10 µM, first compound 0.00949 µM): 70.4% | viability, T/C (second compound 10 µM, first compound 0.03 µM): 69.5% | viability, T/C (second compound 10 µM, first compound 0.0949 µM): 60% | viability, T/C (second compound 10 µM, first compound 0.3 µM): 64.3% | viability, T/C (second compound 10 µM, first compound 0.949 µM): 60% | viability, T/C (second compound 10 µM, first compound 3 µM): 50.3% | viability, T/C (second compound 31.6 µM, first compound 0.00949 µM): 56% | viability, T/C (second compound 31.6 µM, first compound 0.03 µM): 55.7% | viability, T/C (second compound 31.6 µM, first compound 0.0949 µM): 53% | viability, T/C (second compound 31.6 µM, first compound 0.3 µM): 55.5% | viability, T/C (second compound 31.6 µM, first compound 0.949 µM): 50.1% | viability, T/C (second compound 31.6 µM, first compound 3 µM): 43.9% | viability, T/C (second compound 100 µM, first compound 0.00949 µM): 44.5% | viability, T/C (second compound 100 µM, first compound 0.03 µM): 44.9% | viability, T/C (second compound 100 µM, first compound 0.0949 µM): 48.1% | viability, T/C (second compound 100 µM, first compound 0.3 µM): 44% | viability, T/C (second compound 100 µM, first compound 0.949 µM): 39.8% | viability, T/C (second compound 100 µM, first compound 3 µM): 39.7%
